Test results taken from patent publication US20190284176A1, “COMPOSITIONS AND METHODS FOR TREATING CARDIOMYOPATHY” (CASE WESTERN RESERVE UINVERSITY, priority 2018, published 2019).
“Also recorded” adds a separate entry of the source.

Tests used:
CCR2 [1] = biological target: T1, CCR2 (Mus musculus, UniProt P51683); assay: RS-504393 administration from day 14 post-TAC in established pressure overload hypertrophy; type: in vivo; conditions: established POH
T1 construct: tissue Jackson laboratory (mice); host or cells: whole animal: WT C57BL/6J mice; CCR2 on circulating classic monocytes / infiltrating macrophages
T1 sequence (P51683 whole entry): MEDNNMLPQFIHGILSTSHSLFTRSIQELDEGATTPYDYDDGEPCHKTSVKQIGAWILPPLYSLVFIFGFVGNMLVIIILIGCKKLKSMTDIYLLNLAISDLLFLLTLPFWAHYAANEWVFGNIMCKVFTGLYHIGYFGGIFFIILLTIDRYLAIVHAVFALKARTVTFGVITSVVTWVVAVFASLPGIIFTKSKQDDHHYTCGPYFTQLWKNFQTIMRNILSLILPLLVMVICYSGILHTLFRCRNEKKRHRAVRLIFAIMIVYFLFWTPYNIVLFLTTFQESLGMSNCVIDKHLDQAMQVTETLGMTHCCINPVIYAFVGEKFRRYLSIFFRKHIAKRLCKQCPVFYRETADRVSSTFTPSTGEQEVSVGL
Protocol: (§1) Macrophage depletion was achieved by injection (i.v.) of Clodronate liposomes at 500 ug/kg on every other day, starting from 1-day before or 14-day after cardiac surgery as indicated in specific experiments. PBS-containing liposomes were used as vehicle control (Veh). Clodronate liposomes and control liposomes were obtained from the nonprofit Consortium Foundation Clodronate Liposomes. To inhibit monocyte trafficking in vivo, RS-504393 was dissolved in DMSO, diluted 1:20 in PBS and administrated at 2 mg/kg twice daily by oral gavage, starting from 1-3 day before or 14-day after cardiac surgery as indicated in specific experiments. PBS with 5% DMSO was used as vehicle control.
Transverse aortic constriction (TAC) model and echocardiography were performed as described previously. […] LV function was recorded at parasternal short axis view in B-mode and M-mode on a VEVO 770 High-Resolution In Vivo Micro-Imaging System (VisualSonics). ECHO data were recorded at steady heart rate above 500 bpm. LV function was calculated as ejection fraction (EF) or fractional shortening (FS).
Tissue samples were homogenized in QIAzol lysis reagent (Qiagen, 79306) with a TissueLyser (Qiagen). […] Quantitative real-time PCR (qPCR) was performed with either the TaqMan method (Roche Universal ProbeLibrary System) or the SYBR green method on a ViiA 7 Real-Time PCR System (Applied Biosystems). […]

CCR2 [2] = biological target: T1, CCR2; assay: RS-504393 CCR2 blockade in early-phase TAC pressure overload hypertrophy; type: in vivo; conditions: for cardiac macrophage populations / numbers: before and after 1-wk TAC, 2 mg/kg twice daily oral gavage, FACS (FIG. 7), 2 mg/kg
Protocol: as §1
Transverse aortic constriction (TAC) model and echocardiography were performed as described previously. Mice were anaesthetized by ketamine xylazine cocktail (100 uL i.p.) for TAC surgery to reduce aorta diameter to 27-gauge. Buprenorphine was administrated daily (i.p.) for first 5-days post-TAC. Blood pressure gradient across ligation site was confirmed by Doppler echography. For echocardiography, mice were anaesthetized by inhalation of 1% isoflurane vaporized in 100% oxygen. LV function was recorded at parasternal short axis view in B-mode and M-mode on a VEVO 770 High-Resolution In Vivo Micro-Imaging System (VisualSonics). ECHO data were recorded at steady heart rate above 500 bpm. LV function was calculated as ejection fraction (EF) or fractional shortening (FS).
Peritoneal macrophages were collected as described previously. Cardiac macrophages were gated from whole heart cells using surface antibodies (CD45+CD11b+F4/80+Ly6G-CD64+). Mouse heart is perfused, excised, minced, digested with Type I collagenase, mechanically disrupted and filtered through 70 μm cell strainer to get single cell suspension. Cells are collected by centrifugation, subjected to live-death dye and surface antibody staining, and analyzed by flow cytometry. Cells were also sorted by flow cytometry to collect cardiac macrophages. […] After RBC lysis, cells were stained with surface antibodies and analyzed by FACS. […]

Cc1ccc2c(c1)C1(CCN(CCc3nc(-c4ccccc4)oc3C)CC1)OC(=O)N2 [RS-504393]
cardiac hypertrophy (CCR2 [1]; RS oral administration 2 wk after TAC (FIG. 16)): without affecting cardiac hypertrophy
cardiac function (LV function by echocardiography) (CCR2 [1]; RS oral administration 2 wk after TAC, to 6-week post-TAC (FIG. 16)): preserved cardiac function
cardiac macrophage populations / numbers (CCR2 [2]): no effect
cardiac macrophage populations / numbers (CCR2 [2]; listed as RS): no impact
cardiac function / POH (CCR2 [2]; before and after 1 wk post-TAC, echocardiography (FIG. 3A), listed as RS): no effect; also recorded: no impact
